Assay results: PMC2988090 (Nature, 2010)
“Also recorded” adds a separate entry of the source.

Target: T1, dialyzed COI1-ASK1 in the presence of JAZ1 (Arabidopsis thaliana, UniProt O04197+Q9LMA8)
T1 sequence (O04197 1-592): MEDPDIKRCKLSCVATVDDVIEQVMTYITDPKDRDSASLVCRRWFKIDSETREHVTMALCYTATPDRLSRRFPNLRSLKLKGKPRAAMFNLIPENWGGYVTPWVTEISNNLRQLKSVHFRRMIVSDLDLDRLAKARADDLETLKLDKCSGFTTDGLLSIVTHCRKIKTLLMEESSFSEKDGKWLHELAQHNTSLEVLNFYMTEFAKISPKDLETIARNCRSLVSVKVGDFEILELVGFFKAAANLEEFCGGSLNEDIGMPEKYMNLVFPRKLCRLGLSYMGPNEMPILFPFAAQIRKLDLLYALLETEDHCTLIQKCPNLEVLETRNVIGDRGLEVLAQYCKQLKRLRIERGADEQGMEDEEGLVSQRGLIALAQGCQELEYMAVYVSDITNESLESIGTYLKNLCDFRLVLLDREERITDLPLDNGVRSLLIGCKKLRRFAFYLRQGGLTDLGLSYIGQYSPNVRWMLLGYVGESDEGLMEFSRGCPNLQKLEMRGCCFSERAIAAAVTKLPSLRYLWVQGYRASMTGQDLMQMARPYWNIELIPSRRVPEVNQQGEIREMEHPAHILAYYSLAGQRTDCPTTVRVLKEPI
T1 sequence (Q39255 1-160 partner): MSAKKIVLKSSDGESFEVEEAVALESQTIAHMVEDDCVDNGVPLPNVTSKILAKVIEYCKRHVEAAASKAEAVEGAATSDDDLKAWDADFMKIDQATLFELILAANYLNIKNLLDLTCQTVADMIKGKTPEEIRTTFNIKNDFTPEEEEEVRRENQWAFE
T1 sequence (Q9LMA8 1-253): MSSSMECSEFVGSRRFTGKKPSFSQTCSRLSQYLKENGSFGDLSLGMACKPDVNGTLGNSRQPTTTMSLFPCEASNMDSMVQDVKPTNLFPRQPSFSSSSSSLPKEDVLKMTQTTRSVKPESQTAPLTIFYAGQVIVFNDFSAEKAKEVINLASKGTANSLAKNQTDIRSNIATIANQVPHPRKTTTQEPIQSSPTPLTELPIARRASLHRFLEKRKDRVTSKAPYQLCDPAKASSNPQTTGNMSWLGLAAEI
Test: inositol phosphate reconstitution assay
Assay type: binding
Details: dialyzed COI1, 100 nM ^3H-coronatine, 1 µM inositol phosphate

| support of COI1-JAZ1 co-receptor ligand binding activity | Structure (SMILES) |
| --- | --- |
| not favorable for activity | O=P(O)(O)OC1C(OP(=O)(O)O)C(OP(=O)(O)O)C(OP(=O)(O)O)C(OP(=O)(O)O)C1OP(=O)(O)O (stereo not drawn) [InsP6, inositol hexakisphosphate] |
| does not | O=P(O)(O)O[C@@H]1[C@H](O)[C@H](O)[C@@H](OP(=O)(O)O)[C@H](OP(=O)(O)O)[C@H]1O [inositol (1,4,5) triphosphate] |

| Structure (SMILES) | support of COI1-JAZ1 co-receptor ligand binding activity |
| --- | --- |
| O=P(O)(O)O[C@H]1[C@H](OP(=O)(O)O)[C@@H](OP(=O)(O)O)[C@@H](O)[C@@H](O)[C@@H]1OP(=O)(O)O [inositol (1,4,5,6) tetrakisphosphate] | supports the activity; also recorded: support high affinity hormone binding |
